Test results taken from the supplement of paper PMC10307832.

Legend:
Test in all cases: relative viability (nuclei count vs DMSO), 5 days (fraction); higher = more cells survive
[1] = compound: N[C@@H]1CCCN(c2c(/C=C3\SC(=O)NC3=O)cccc2-c2ccccc2)C1 [AZD1208] + CS(=O)(=O)N1CCN(Cc2cc3nc(-c4cccc5[nH]ncc45)nc(N4CCOCC4)c3s2)CC1 [Pictilisib] (partner 1 µM)
Procedure, shortened: (§1)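 Lung cancer cell lines, seeded in 1536-well plates, were treated the following day by pin tool with a single drug or with five library-drug doses (not always all listed) in √10 steps on top of a fixed anchor-drug dose. Cells were fixed and nuclei stained in one step after 5 days, and nuclei were counted. Relative viability is the nuclei count for treated wells divided by that for vehicle wells, reported as medians of duplicate plates.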

[2] = compound: CN1CCN(CC1)C2=CC(=C(C=C2)NC3=NC(=C(S3)C(=O)C4=C(C=CC=C4Cl)Cl)N)OC [XMD14-99] + CCNC(=O)c1noc(-c2cc(C(C)C)c(O)cc2O)c1-c1ccc(CN2CCOCC2)cc1 [Luminespib] (partner 0.01 µM)
Procedure, shortened: as §1

[3] = compound: N[C@@H]1CCCN(c2c(/C=C3\SC(=O)NC3=O)cccc2-c2ccccc2)C1 [AZD1208] + O=C(c1cc(Cc2n[nH]c(=O)c3ccccc23)ccc1F)N1CCN(C(=O)C2CC2)CC1 [Olaparib] (partner 8 µM)
Procedure, shortened: as §1

[4] = compound: CN1CCN(CC1)C2=CC(=C(C=C2)NC3=NC(=C(S3)C(=O)C4=C(C=CC=C4Cl)Cl)N)OC [XMD14-99] + CC(=O)Nc1cccc(-n2c(=O)n(C3CC3)c(=O)c3c(Nc4ccc(I)cc4F)n(C)c(=O)c(C)c32)c1 [Trametinib] (partner 0.02 µM)
Procedure, shortened: as §1

Cell Line	relative viability ([1]; first compound 0.08 µM)	relative viability ([1]; first compound 0.253 µM)	relative viability ([1]; first compound 0.8 µM)	relative viability ([1]; first compound 2.53 µM)	relative viability ([1]; first compound 8 µM)	relative viability ([2]; first compound 0.08 µM)	relative viability ([2]; first compound 0.8 µM)	relative viability ([2]; first compound 2.53 µM)	relative viability ([2]; first compound 8 µM)	relative viability ([3]; first compound 0.08 µM)	relative viability ([3]; first compound 0.253 µM)	relative viability ([3]; first compound 0.8 µM)	relative viability ([3]; first compound 2.53 µM)	relative viability ([3]; first compound 8 µM)	relative viability ([4]; first compound 0.08 µM)	relative viability ([4]; first compound 0.8 µM)	relative viability ([4]; first compound 2.53 µM)	relative viability ([4]; first compound 8 µM)
201T	0.644	0.641	0.649	0.62	0.686	1	1.01	0.993	0.829	0.876	0.84	0.866	0.868	0.909	0.693	0.709	0.691	0.664
A549	0.409	0.423	0.303	0.283	0.358	–	–	–	–	0.345	0.38	0.306	0.261	0.235	–	–	–	–
A-427	0.673	0.664	0.597	0.74	0.533	1.02	1.07	0.875	0.617	0.674	0.758	0.605	0.713	0.661	0.762	0.668	0.651	0.553
ABC-1	0.526	0.665	0.565	0.623	0.627	0.511	0.7	0.806	0.382	0.623	0.813	0.56	1.17	0.759	–	–	–	–
BEN	0.525	0.447	0.414	0.387	0.373	0.377	0.419	0.271	0.285	1.01	0.985	0.722	0.758	0.59	0.971	1.15	1	0.879
CAL-12T	0.507	0.523	0.389	0.355	0.511	0.387	0.524	0.358	0.346	0.81	0.737	0.633	0.711	0.797	0.358	0.305	0.268	0.241
COR-L23	0.738	0.87	0.725	0.693	0.75	0.578	0.613	0.515	0.419	0.307	0.354	0.372	0.304	0.321	0.518	0.56	0.546	0.363
COR-L 105	0.369	0.3	0.353	0.366	0.451	0.693	0.845	0.778	0.466	0.702	0.586	0.661	0.736	0.594	0.407	0.493	0.432	0.431
Calu-6	0.784	1	0.851	0.829	0.739	–	–	–	–	0.572	0.648	0.591	0.592	0.639	–	–	–	–
ChaGo-K-1	0.979	0.698	0.644	0.537	0.484	0.565	0.599	0.609	0.513	0.426	0.431	0.378	0.437	0.434	0.861	0.863	0.895	0.829
EBC-1	0.2	0.275	0.265	0.271	0.274	–	–	–	–	0.709	0.707	0.63	0.687	0.624	–	–	–	–
EKVX	0.395	0.421	0.349	0.375	0.365	0.905	0.814	0.768	0.802	0.793	0.941	0.811	0.829	0.821	0.321	0.298	0.382	0.294
EMC-BAC-2	0.537	0.528	0.463	0.474	0.47	1.19	1.13	0.99	1.01	0.517	0.536	0.494	0.472	0.448	0.832	0.716	0.744	0.668
EPLC-272H	0.362	0.278	0.349	0.324	0.271	0.658	0.512	0.417	0.195	0.647	0.773	0.906	0.687	0.656	0.274	0.265	0.287	0.251
H3255	0.402	0.44	0.408	0.364	0.451	0.958	0.934	0.781	0.614	0.593	0.611	0.557	0.597	0.569	0.563	0.67	0.54	0.488
HARA	0.349	0.373	0.452	0.286	0.363	0.311	0.685	0.581	0.207	0.825	0.471	0.646	0.743	0.895	0.577	0.549	0.465	0.466
HCC-15	0.611	0.679	0.524	0.548	0.515	0.412	0.258	0.214	0.256	0.664	0.718	0.66	0.636	0.613	0.415	0.412	0.353	0.349
HCC-44	0.617	0.463	0.372	0.46	0.458	1.01	0.968	1.07	0.753	0.989	0.918	0.999	0.996	0.919	1.02	1.04	1.11	1.01
HCC-78	0.205	0.206	0.198	0.195	0.205	–	–	–	–	0.859	0.904	0.762	0.815	0.754	0.628	0.711	0.753	0.438
HCC-366	0.112	0.0978	0.123	0.092	0.0878	–	–	–	–	0.352	0.311	0.283	0.316	0.281	0.424	0.309	0.377	0.261
HCC-827	1.07	1.15	0.992	0.95	0.784	0.492	0.669	0.595	0.617	0.623	0.669	0.389	0.641	0.338	0.539	0.529	0.542	0.432

Cell Line	relative viability ([1]; first compound 0.08 µM)	relative viability ([1]; first compound 0.253 µM)	relative viability ([1]; first compound 0.8 µM)	relative viability ([1]; first compound 2.53 µM)	relative viability ([1]; first compound 8 µM)	relative viability ([2]; first compound 0.08 µM)	relative viability ([2]; first compound 0.8 µM)	relative viability ([2]; first compound 2.53 µM)	relative viability ([2]; first compound 8 µM)	relative viability ([3]; first compound 0.08 µM)	relative viability ([3]; first compound 0.253 µM)	relative viability ([3]; first compound 0.8 µM)	relative viability ([3]; first compound 2.53 µM)	relative viability ([3]; first compound 8 µM)	relative viability ([4]; first compound 0.08 µM)	relative viability ([4]; first compound 0.8 µM)	relative viability ([4]; first compound 2.53 µM)	relative viability ([4]; first compound 8 µM)
HOP-62	0.658	0.638	0.658	0.455	0.717	0.93	0.878	0.846	0.778	0.39	0.417	0.326	0.341	0.37	0.382	0.419	0.412	0.368
IA-LM	0.256	0.326	0.292	0.231	0.308	–	–	–	–	0.907	0.777	0.774	0.807	0.904	–	–	–	–
LC-2-ad	0.397	0.446	0.405	0.357	0.417	1.04	0.984	0.824	0.582	0.315	0.781	0.736	0.663	0.728	0.956	0.88	0.998	0.873
LCLC-97TM1	0.164	0.175	–	0.121	0.145	0.843	0.747	0.728	0.516	0.327	0.396	0.385	0.316	0.252	0.172	0.229	0.208	0.18
LCLC-103H	0.568	0.614	0.485	0.455	0.448	0.984	1.1	0.84	0.847	0.774	0.798	0.811	0.81	0.786	0.702	0.716	0.719	0.665
LK-2	0.373	0.349	0.29	0.383	0.266	0.183	0.188	0.206	0.171	0.677	0.736	0.444	0.324	0.353	0.571	0.738	0.706	0.646
LOU-NH91	0.503	0.485	0.503	0.494	0.517	0.443	0.325	0.294	0.3	0.905	0.943	0.876	0.907	0.883	0.865	0.829	0.793	0.762
LU99A	0.304	0.294	0.289	0.35	0.236	0.288	0.252	0.247	0.219	0.273	0.266	0.273	0.235	0.246	0.559	0.61	0.512	0.394
LXF-289	0.706	0.724	0.73	0.699	0.724	0.586	0.672	0.639	0.634	1.03	1.23	1.06	1.03	1.01	0.632	0.639	0.611	0.529
NCI-H23	0.413	0.561	0.327	0.358	0.335	0.199	0.247	0.214	0.202	0.321	0.324	0.292	0.298	0.279	0.487	0.326	0.47	0.364
NCI-H322M	0.494	0.466	0.463	0.474	0.547	0.857	1.06	0.939	0.863	0.762	0.799	–	0.726	0.834	0.491	0.565	0.593	0.521
NCI-H358	0.35	0.284	0.333	0.299	0.283	0.219	0.262	0.323	0.281	0.636	0.515	0.501	0.544	0.525	0.118	0.179	0.134	0.127
NCI-H522	–	–	–	–	–	1.05	1.28	1.2	1.18	0.527	0.504	0.633	0.703	0.568	0.783	0.901	0.75	0.85
NCI-H1299	0.731	0.725	0.818	0.653	0.562	–	–	–	–	0.999	1.01	0.974	0.957	0.987	–	–	–	–
NCI-H1563	0.566	0.545	0.672	0.635	0.629	0.505	0.551	0.546	0.48	–	–	–	–	–	–	–	–	–
NCI-H1623	–	–	–	–	–	0.509	0.475	0.454	0.444	–	–	–	–	–	–	–	–	–
NCI-H1648	–	–	–	–	–	–	–	–	–	1.09	1.44	0.663	0.828	0.939	0.613	0.46	0.459	0.466
NCI-H1703	0.225	0.242	0.238	0.214	0.198	–	–	–	–	0.416	0.334	0.268	0.384	0.337	–	–	–	–
NCI-H2342	–	–	–	–	–	0.778	0.725	0.787	0.745	0.49	0.383	0.372	0.456	0.376	0.885	0.882	0.949	0.848
SW 900	–	–	–	–	–	0.165	0.163	0.204	0.144	0.692	0.538	0.893	0.923	0.668	0.779	0.876	0.752	0.756
